This assay concerns the target T1, UMAMIT18 (Arabidopsis thaliana, UniProt Q9LPF1).
T1 construct: gene At1g44800; cDNA in pDR196-Ws, expressed in yeast 22delta10alpha
T1 sequence (Q9LPF1 1-370): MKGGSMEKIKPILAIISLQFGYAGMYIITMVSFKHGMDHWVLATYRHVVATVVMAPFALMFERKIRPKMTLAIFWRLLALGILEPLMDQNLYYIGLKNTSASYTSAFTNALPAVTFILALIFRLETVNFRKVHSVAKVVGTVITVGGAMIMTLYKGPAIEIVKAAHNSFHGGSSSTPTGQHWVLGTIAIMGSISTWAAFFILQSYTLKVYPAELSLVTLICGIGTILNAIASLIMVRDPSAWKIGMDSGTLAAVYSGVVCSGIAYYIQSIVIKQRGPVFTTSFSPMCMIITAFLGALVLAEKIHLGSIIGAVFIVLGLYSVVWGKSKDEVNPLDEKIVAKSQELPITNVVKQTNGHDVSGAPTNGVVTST
In words: amino acid secretion into medium by yeast, UPLC. The settings on record: export, 22 h growth in minimal medium, yeast 22delta10alpha. Type of assay: cell-based.

Structures are written as SMILES.

This note sets out measurements from article PMC5181585, “UMAMIT14 is an amino acid exporter involved in phloem unloading in Arabidopsis roots” (Journal of Experimental Botany, 2016).

In the case of `NC(=O)CC[C@H](N)C(=O)O` [Gln], the “amino acid secretion into medium by yeast, UPLC” value (Gln peak not resolved from Arg) was “Gln, Val, and Ile represented a larger proportion of the secreted amino acids for UMAMIT18”. On to `CC(C)[C@H](N)C(=O)O` [Val], for which the “amino acid secretion into medium by yeast, UPLC” value is “Gln, Val, and Ile represented a larger proportion of the secreted amino acids for UMAMIT18”.
